The test system of assay [1] is Glioblastoma (GBM). Also noted: method as in PMID 32478924. To be noted: added to radiotherapy; GBM patients; on average; cited from earlier work.
Assay [2] concerns 913-GSCs. Briefly: Invasion through a Matrigel/HA matrix (XCELLigence). The class given is cell-based, human. To be noted: shMT1-MMP 913-GSCs; 10 ng/ml. Here is the method:
XCELLigence.—Invasion was performed as per the manufacturer’s instructions. Briefly, 10^4 913-GSCs and GBM1 cells were plated on top of uncoated or 0.4% Growth Factor Reduced Matrigel/10 µg/ml hyaluronic acid (HA) coated wells (CIM plate 16). HA was used as it is a major component of brain ECM. Cells were left at room temperature for 30 min to settle and then the plates were placed into an xCELLigence RTCA DP instrument (ACEA Bioscience). Measurements were taken every 15 min for 48 h or up to 6 days. Cell Index (CI) curves normalized to initial seeding were recorded. 3D Decellularized Brain matrix: 10^4 913-GSC cells were embedded in a 3D decellularized mouse brain matrix, derived as in,[16],[17] which retains the architecture and major components of brain ECM. Briefly, Nu/nu mouse brains were cut into small pieces and submerged in decellularizing solution [0.1% (v/v) ammonium hydroxide (Sigma) and 1% (v/v) Triton X-100 (Sigma) in distilled water] for 2 days. After washing in distilled water, the derived ECM was digested with pepsin (1 mg/ml; Sigma) in HCl (0.01 N) for 2 days at room temperature until visible ECM particle disappeared. To make hydrogels, the ECM solution was mixed with 10 × PBS, dilute to the desired final concentration (20 mg/ml) with ice-cold distilled water and adjust to pH7 by NaOH (1 M). […] Invadopodia length was measured and quantified with ImageJ.

Regarding `Cn1nnc2c(C(N)=O)ncn2c1=O` [TMZ, temozolomide], the “increase in survival compared to radiotherapy alone” value in assay [1] was 2.5 months.

B1: recombinant MMP2: Recombinant MMP2 purchased from R&D Systems, used at 10 ng/ml (protein, UniProt P08253 110-660, looked up)
72 kDa type IV collagenase: YNFFPRKPKWDKNQITYRIIGYTPDLDPETVDDAFARAFQVWSDVTPLRFSRIHDGEADIMINFGRWEHGDGYPFDGKDGLLAHAFAPGTGVGGDSHFDDDELWTLGEGQVVRVKYGNADGEYCKFPFLFNGKEYNSCTDTGRSDGFLWCSTTYNFEKDGKYGFCPHEALFTMGGNAEGQPCKFPFRFQGTSYDSCTTEGRTDGYRWCGTTEDYDRDKKYGFCPETAMSTVGGNSEGAPCVFPFTFLGNKYESCTSAGRSDGKMWCATTANYDDDRKWGFCPDQGYSLFLVAAHEFGHAMGLEHSQDPGALMAPIYTYTKNFRLSQDDIKGIQELYGASPDIDLGTGPTPTLGPVTPEICKQDIVFDGIAQIRGEIFFFKDRFIWRTVTPRDKPMGPLLVATFWPELPEKIDAVYEAPQEEKAVFFAGNEYWIYSASTLERGYPKPLTSLGLPPDVQRVDAAFNWSKNKKTYIFAGDKFWRYNEVKKKMDPGFPKLIADAWNAIPDNLDAVVDLQGGGHSYFFKGAYYLKLENQSLKSVKFGSIKSDWLGC
As for B1, in assay [2], the “invasion of MT1-MMP depleted cells through Matrigel/HA matrix” value is recorded as “restored the cells invasive capacity to the levels of controls”.

These data come from article PMC9536293, “Targeting extracellular matrix remodeling sensitizes glioblastoma to ionizing radiation” (Neuro-Oncology Advances, 2022).
